From patent US8546452B2, “S1P3 receptor antagonist” (TOA Eiyo Ltd., priority 2005, dated 2013) come the findings set out here.

Where two headings read alike, the source gives them in different places.

The nature of series [1]: Time to reach the maximum blood concentration after oral administration. In kind it is in vivo. To be noted: oral administration (1 mg/kg).
The subject of series [2] is FTY720-induced bradycardia. Nature of the series: Effect on hemodynamic changes (bradycardia) caused by FTY720 in anesthetized rat. Format: in vivo. The conditions noted are these: FTY720 1 mg/kg intravenously. As to the method: Thus, the effects of the compound of the present invention on the FTY720-induced bradycardia were examined.
A rat was anesthetized with pentobarbital (50 mg/kg, intraperitoneal administration), and then catheters for drug administration and blood pressure measurement were inserted into the lower limb vein and the carotid artery, respectively. The blood pressure was measured with a strain pressure amplifier via a pressure transducer. The heart rate was measured with a tachometer by means of the electrocardiographic wave. The FTY720 used was purchased from Cayman Chemical Co.
FTY720 (1 mg/kg) was intravenously administered, and the effects thereof on hemodynamics were investigated by measuring the blood pressure and the heart rate at 0 minute (immediately before administration), and 10, 20 and 30 minutes immediately after the intravenous administration.

For the next series, the system named is isolated heart of rat. Nature of the series: Effect on the coronary blood flow rate in isolated heart of rat (Langendorff perfusion). The conditions noted are these: S1P 10^−9 M to 10^−7 M in perfusion solution. As to the method: A male SD rat weighing about 350 g was anesthetized with pentobarbital sodium (50 mg/kg), and heparin (1000 U/kg) was administered through the lower limb vein. The heart was rapidly isolated and connected to a Langendorff perfusion apparatus. […] The temperature of the perfusion solution was set at 37±0.2° C., and gassed with a gas mixture (95% O2 and 5% CO2) such that the oxygen partial pressure was 550 mmHg or more. The coronary perfusion flow rate was measured with an electromagnetic blood flow meter through a probe installed in the circulation pathway. Furthermore, the effects on the heart function were investigated using the left ventricular developed pressure (LVDP), the first derivative of the left ventricular pressure (LV±dp/dt) and the heart rate (HR) as indices. The LVDP was determined by subtracting the left ventricular end diastolic pressure (LVEDP) from the left ventricular systolic pressure (LVSP), which was detected with a latex balloon inserted into the left ventricle, and measured with a pressure strain meter via a pressure transducer. […] Signals measured with the pressure strain meter were conducted to a differential meter and a heart rate meter, to measure the first derivative of the left ventricular pressure (LV±dp/dt) and the heart rate (HR). […]

The target of series [3] is T1, hS1P3 (Homo sapiens, UniProt Q99500). As to the kind of experiment: Suppressive effect on S1P-induced increase in [Ca2+]i, CHO-K1 cells expressing S1P3 (Fura 2-AM), IC50. In kind it is cell-based. To be noted: S1P solution 50 nmol/L, read-out: hS1P3 suppression IC50.
T1 sequence (Q99500 whole entry): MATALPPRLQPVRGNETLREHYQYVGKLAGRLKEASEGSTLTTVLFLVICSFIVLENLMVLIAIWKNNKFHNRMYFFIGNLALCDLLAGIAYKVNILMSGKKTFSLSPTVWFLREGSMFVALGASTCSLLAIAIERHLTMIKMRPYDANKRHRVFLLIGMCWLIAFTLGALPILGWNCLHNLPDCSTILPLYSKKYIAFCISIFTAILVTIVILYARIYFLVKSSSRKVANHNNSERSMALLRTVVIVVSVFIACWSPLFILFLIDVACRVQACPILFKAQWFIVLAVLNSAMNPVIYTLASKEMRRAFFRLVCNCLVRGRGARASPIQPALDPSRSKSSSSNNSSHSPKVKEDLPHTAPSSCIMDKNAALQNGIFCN
Series [4] concerns the target T1, hS1P3. As to the kind of experiment: S1P receptor subtype selectivity, S1P-induced [Ca2+]i increase in CHO-K1 cells stably expressing S1P3 (Calcium3). Format: cell-based. As to the method: (§1) The selectivity to the S1P receptor subtype was examined in the following manner. […] Furthermore, a Calcium3 (Molecular Devices, Inc.) solution prepared in HBSS (+) buffer, which is a fluorescent Ca^2+ indicator, was added, and the cells were incubated for 60 minutes at 37° C. Then, 100 μL of a test compound solution prepared to a concentration of 2×10 μmol/L was added, and the cells were incubated for 20 minutes at 37° C. […] The indicator was prepared and used according to the instruction manual.
(§2) A solution of the test compound was prepared by dissolving each of the test compounds in DMSO to a concentration of 10 mmol/L, and then diluting the solution with an HBSS (+) buffer solution to the predetermined concentration. […] The measurement values were obtained by subtracting the maximum RFU value for the blind test from the maximum RFU values for control or each test compounds. A decrease in the measurement value for the test compound relative to the control was indicated as the suppression rate (%), from which the IC50 value was calculated.

The next series concerns the target T2, hS1P1 (Homo sapiens, UniProt P21453).
T2 construct: expressed in transfected cells
Nature of the series: S1P receptor subtype selectivity, S1P-induced [Ca2+]i increase in CHO-K1 cells stably expressing S1P1 (Calcium3). In kind it is cell-based. As for the experimental part: as §1, §2

The next series concerns the target T3, hS1P2 (Homo sapiens, UniProt O95136).
T3 construct: expressed in transfected cells
Nature of the series: S1P receptor subtype selectivity, S1P-induced [Ca2+]i increase in CHO-K1 cells stably expressing S1P2 (Calcium3). In kind it is cell-based. As to the method: as §1, §2

[5] abbreviates: 10 μM, CHO-K1 stably expressing S1P3, S1P solution 50 nmol/L, Calcium3, read-out: Suppression rate at 10 μM (%) hS1P3.
Where [6] appears, read: 10 μM, CHO-K1 stably expressing S1P1, S1P solution 100 nmol/L, Calcium3, read-out: Suppression rate at 10 μM (%) hS1P1.
[7] abbreviates: 10 μM, CHO-K1 stably expressing S1P2, S1P solution 100 nmol/L, Calcium3, read-out: Suppression rate at 10 μM (%) hS1P2.

T2 sequence (P21453 whole entry): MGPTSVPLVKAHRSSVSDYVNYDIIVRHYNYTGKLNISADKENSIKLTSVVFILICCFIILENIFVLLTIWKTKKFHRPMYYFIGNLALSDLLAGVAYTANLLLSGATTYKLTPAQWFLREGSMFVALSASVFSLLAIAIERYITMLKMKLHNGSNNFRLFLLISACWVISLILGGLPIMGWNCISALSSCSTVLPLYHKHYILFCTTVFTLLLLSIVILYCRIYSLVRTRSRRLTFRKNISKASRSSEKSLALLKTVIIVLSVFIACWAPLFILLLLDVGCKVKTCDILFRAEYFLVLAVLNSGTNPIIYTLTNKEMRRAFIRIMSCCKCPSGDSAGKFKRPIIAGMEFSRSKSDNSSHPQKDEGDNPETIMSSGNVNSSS
T3 sequence (O95136 whole entry): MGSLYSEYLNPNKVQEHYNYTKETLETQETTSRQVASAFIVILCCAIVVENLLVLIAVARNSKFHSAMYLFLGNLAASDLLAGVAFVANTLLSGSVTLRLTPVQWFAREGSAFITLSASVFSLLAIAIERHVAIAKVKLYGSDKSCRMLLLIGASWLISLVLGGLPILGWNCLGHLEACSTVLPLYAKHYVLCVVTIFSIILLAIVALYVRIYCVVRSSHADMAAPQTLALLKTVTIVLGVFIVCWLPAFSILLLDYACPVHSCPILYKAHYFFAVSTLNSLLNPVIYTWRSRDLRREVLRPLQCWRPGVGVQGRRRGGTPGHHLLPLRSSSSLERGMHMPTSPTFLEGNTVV

In the case of `CC(C)(C)C(=O)/C(=N/c1ccc(Cl)cc1)NNc1ccc(Cl)cc1` [Compound 33, 1-(4-chlorophenylamino)-1-(4-chlorophenylhydrazono)-3,3-dimethyl-2-butanone], in series [1], the “time to reach the maximum blood concentration” value was 4 h.

`CCCCCCCCc1ccc(CCC(N)(CO)CO)cc1` [FTY720]: in series [2], the “heart rate, effect of FTY720” value is “reduced the heart rate and induced bradycardia”.

As to `CCCCCCCCCCCCC/C=C/[C@@H](O)[C@@H](N)COP(=O)(O)O` [Compound S1P, sphingosine 1-phosphate], the “coronary blood flow rate, effect of S1P” value in the series on isolated heart of rat was “significantly decreased”.

As for `CC(C)(C)C(=O)C(=NNc1ccc(Cl)cc1)Nc1ccc(Br)cc1` [Compound 134, 1-(4-bromophenylamino)-1-(4-chlorophenylhydrazono)-3,3-dimethyl-2-butanone], the IC50 (in general, the midpoint of a concentration-inhibition curve) at hS1P3 [3] is 0.87 µM. Further, the inhibition at 10 µM at hS1P3 [4] (setting [5]) was determined as 96.5%; at hS1P1 (setting [6]) it was 36.4%; on hS1P2 (setting [7]), 29.8%.

As to `CC(C)(C)C(=O)C(=NNc1ccc(C(F)(F)F)cc1)Nc1ccc(F)cc1` [Compound 67, 1-(4-fluorophenylamino)-1-(4-trifluoromethylphenylhydrazono)-3,3-dimethyl-2-butanone], the half-maximal inhibitory concentration (IC50) on hS1P3 [3] is 8.2 µM. For the same compound, the inhibition at 10 µM was 90.2% at hS1P3 [4] (setting [5]), 20.8% on hS1P1 (setting [6]) and 15.5% at hS1P2 (setting [7]).

Take `O=C(C(=NNc1ccc(Cl)cc1)Nc1cccc(F)c1F)c1ccccc1` [Compound 3, 2-(4-chlorophenylhydrazono)-2-(2,3-difluorophenylamino)acetophenone]: the IC50 at hS1P3 [3] was found to be 14.7 µM. The values for the inhibition at 10 µM on hS1P3 [4] (setting [5]), on hS1P1 (setting [6]) and at hS1P2 (setting [7]) were 68.5%, 18.6% and -0.4%, respectively.

Turning to `C#Cc1ccc(NC(=NNc2ccc(Cl)cc2)C(=O)CCCC)cc1` [Compound 111, 1-(4-chlorophenylhydrazono)-1-(4-ethynylphenylamino)-2-hexanone], the IC50 on hS1P3 [3] was 1.55 µM. For the same compound, the inhibition at 10 µM was 95.1% on hS1P3 [4] (CHO-K1, read-out: Suppression rate at 10 μM (%) hS1P3); -16.6% at hS1P1 (CHO-K1, read-out: Suppression rate at 10 μM (%) hS1P1); 23.1% at hS1P2 (CHO-K1, read-out: Suppression rate at 10 μM (%) hS1P2).
